Assay results published in patent publication US12043599B2, “Herbicidal compounds” (SYNGENTA PARTICIPATIONS AG, priority 2018, dated 2024).

Legend:
Assay type in all cases: in vivo
Settings in all cases: 250 g/h, evaluated after 13 days
Avena fatua (AVEFA) [1] = assay: Pre-emergence herbicidal glasshouse test, percentage damage
Method: (§1) Seeds of a variety of test species are sown in standard soil in pots (Lolium perenne (LOLPE), Setaria faberi (SETFA), Alopecurus myosuroides (ALOMY), Echinochloa crus-galli (ECHCG), Avena fatua (AVEFA)). After cultivation for one day (pre-emergence) or after 8 days cultivation (post-emergence) under controlled conditions in a glasshouse (at 24/16° C., day/night; 14 hours light; 65% humidity), the plants are sprayed with an aqueous spray solution derived from the formulation of the technical active ingredient in acetone/water (50:50) solution containing 0.5% Tween 20 (polyoxyethelyene sorbitan monolaurate, CAS RN 9005-64-5). Compounds are applied at […]. The test plants are then grown in a glasshouse under controlled conditions in a glasshouse (at 24/16° C., day/night; 14 hours light; 65% humidity) and watered twice daily. After 13 days for pre and post-emergence, the test is evaluated for the percentage damage caused to the plant. The biological activities are shown in the following table on a five point scale (5=80-100%; 4=60-79%; 3=40-59%; 2=20-39%; 1=0-19%).

[2] = test system: Echinochloa crus-galli (ECHCG); assay: as above
Method: as §1

Lolium perenne (LOLPE) [3] = assay: as above
Method: as §1

Setaria faberi (SETFA) [4] = assay: as above
Method: as §1

Setaria faberi (SETFA) [5] = assay: Post-emergence herbicidal glasshouse test, percentage damage
Method: as §1
Using procedures outlines above, wheat and barley crop plants and a weed species (SETFA) are treated post-emergence with compound A11 of the present invention or comparator compound C1 (Compound A-38 from WO2014/096289) at the application rates indicated. The compounds were also applied to wheat in conjunction with the safener compound cloquintocet-mexyl (CQC) at 50 g/ha.

Avena fatua (AVEFA) [6] = assay: as above
Method: as §1

[7] = test system: Echinochloa crus-galli (ECHCG); assay: as above
Method: as §1

Lolium perenne (LOLPE) [8] = assay: as above
Method: as §1

Structure (SMILES): CC#Cc1cc(C)c(C2C(=O)CC3(CCN(C(=O)c4nnc(C)o4)CC3)CC2=O)c(C)c1 [Compound A119]
- AVEFA PRE percentage damage (five point scale) (Avena fatua (AVEFA) [1]): 5 (5=80-100%)
- ECHCG PRE percentage damage (five point scale) [2]: 5 (5=80-100%)
- LOLPE PRE percentage damage (five point scale) (Lolium perenne (LOLPE) [3]): 5 (5=80-100%)
- SETFA PRE percentage damage (five point scale) (Setaria faberi (SETFA) [4]): 5 (5=80-100%)
- SETFA POST percentage damage (five point scale) (Setaria faberi (SETFA) [5]): 5 (5=80-100%)
- AVEFA POST percentage damage (five point scale) (Avena fatua (AVEFA) [6]): 5 (5=80-100%)
- ECHCG POST percentage damage (five point scale) [7]: 5 (5=80-100%)
- LOLPE POST percentage damage (five point scale) (Lolium perenne (LOLPE) [8]): 5 (5=80-100%)

Structure (SMILES): CC#Cc1cc(C)c(C2C(=O)CC3(CCN(C(=O)NC(=O)C(C)C)CC3)CC2=O)c(C)c1 [Compound A142]
- AVEFA PRE percentage damage (five point scale) (Avena fatua (AVEFA) [1]): 4 (4=60-79%)
- ECHCG PRE percentage damage (five point scale) [2]: 5 (5=80-100%)
- LOLPE PRE percentage damage (five point scale) (Lolium perenne (LOLPE) [3]): 5 (5=80-100%)
- SETFA PRE percentage damage (five point scale) (Setaria faberi (SETFA) [4]): 5 (5=80-100%)
- SETFA POST percentage damage (five point scale) (Setaria faberi (SETFA) [5]): 5 (5=80-100%)
- AVEFA POST percentage damage (five point scale) (Avena fatua (AVEFA) [6]): 5 (5=80-100%)
- ECHCG POST percentage damage (five point scale) [7]: 5 (5=80-100%)
- LOLPE POST percentage damage (five point scale) (Lolium perenne (LOLPE) [8]): 5 (5=80-100%)

Structure (SMILES): CC#Cc1cc(C)c(C2C(=O)CC3(CCN(C(=O)c4cnco4)CC3)CC2=O)c(C)c1 [Compound A116]
- AVEFA PRE percentage damage (five point scale) (Avena fatua (AVEFA) [1]): 5 (5=80-100%)
- ECHCG PRE percentage damage (five point scale) [2]: 5 (5=80-100%)
- LOLPE PRE percentage damage (five point scale) (Lolium perenne (LOLPE) [3]): 5 (5=80-100%)
- SETFA PRE percentage damage (five point scale) (Setaria faberi (SETFA) [4]): 5 (5=80-100%)
- SETFA POST percentage damage (five point scale) (Setaria faberi (SETFA) [5]): 5 (5=80-100%)
- AVEFA POST percentage damage (five point scale) (Avena fatua (AVEFA) [6]): 5 (5=80-100%)
- ECHCG POST percentage damage (five point scale) [7]: 5 (5=80-100%)
- LOLPE POST percentage damage (five point scale) (Lolium perenne (LOLPE) [8]): 5 (5=80-100%)

Structure (SMILES): CC#Cc1cc(C)c(C2C(=O)CC3(CCN(C(=O)c4nn(C)nc4C)CC3)CC2=O)c(C)c1 [Compound A134]
- AVEFA PRE percentage damage (five point scale) (Avena fatua (AVEFA) [1]): 5 (5=80-100%)
- ECHCG PRE percentage damage (five point scale) [2]: 5 (5=80-100%)
- LOLPE PRE percentage damage (five point scale) (Lolium perenne (LOLPE) [3]): 5 (5=80-100%)
- SETFA PRE percentage damage (five point scale) (Setaria faberi (SETFA) [4]): 5 (5=80-100%)
- SETFA POST percentage damage (five point scale) (Setaria faberi (SETFA) [5]): 5 (5=80-100%)
- AVEFA POST percentage damage (five point scale) (Avena fatua (AVEFA) [6]): 5 (5=80-100%)
- ECHCG POST percentage damage (five point scale) [7]: 5 (5=80-100%)
- LOLPE POST percentage damage (five point scale) (Lolium perenne (LOLPE) [8]): 5 (5=80-100%)

Structure (SMILES): CC#Cc1cc(C)c(C2C(=O)CC3(CCN(C(=O)c4cnc(C#N)s4)CC3)CC2=O)c(C)c1 [Compound A106]
- AVEFA PRE percentage damage (five point scale) (Avena fatua (AVEFA) [1]): 2 (2=20-39%)
- ECHCG PRE percentage damage (five point scale) [2]: 4 (4=60-79%)
- LOLPE PRE percentage damage (five point scale) (Lolium perenne (LOLPE) [3]): 3 (3=40-59%)
- SETFA PRE percentage damage (five point scale) (Setaria faberi (SETFA) [4]): 4 (4=60-79%)
- SETFA POST percentage damage (five point scale) (Setaria faberi (SETFA) [5]): 5 (5=80-100%)
- AVEFA POST percentage damage (five point scale) (Avena fatua (AVEFA) [6]): 5 (5=80-100%)
- ECHCG POST percentage damage (five point scale) [7]: 3 (3=40-59%)
- LOLPE POST percentage damage (five point scale) (Lolium perenne (LOLPE) [8]): 3 (3=40-59%)

Structure (SMILES): CC#Cc1cc(C)c(C2C(=O)CC3(CCN(C(=O)NC(=O)CC)CC3)CC2=O)c(C)c1 [Compound A108]
- AVEFA PRE percentage damage (five point scale) (Avena fatua (AVEFA) [1]): 5 (5=80-100%)
- ECHCG PRE percentage damage (five point scale) [2]: 5 (5=80-100%)
- LOLPE PRE percentage damage (five point scale) (Lolium perenne (LOLPE) [3]): 5 (5=80-100%)
- SETFA PRE percentage damage (five point scale) (Setaria faberi (SETFA) [4]): 5 (5=80-100%)
- SETFA POST percentage damage (five point scale) (Setaria faberi (SETFA) [5]): 5 (5=80-100%)
- AVEFA POST percentage damage (five point scale) (Avena fatua (AVEFA) [6]): 5 (5=80-100%)
- ECHCG POST percentage damage (five point scale) [7]: 5 (5=80-100%)
- LOLPE POST percentage damage (five point scale) (Lolium perenne (LOLPE) [8]): 5 (5=80-100%)

Structure (SMILES): CC#Cc1cc(C)c(C2C(=O)CC3(CCN(C(=O)c4cn(C)cn4)CC3)CC2=O)c(C)c1 [Compound A117]
- AVEFA PRE percentage damage (five point scale) (Avena fatua (AVEFA) [1]): 2 (2=20-39%)
- ECHCG PRE percentage damage (five point scale) [2]: 5 (5=80-100%)
- LOLPE PRE percentage damage (five point scale) (Lolium perenne (LOLPE) [3]): 4 (4=60-79%)
- SETFA PRE percentage damage (five point scale) (Setaria faberi (SETFA) [4]): 5 (5=80-100%)
- SETFA POST percentage damage (five point scale) (Setaria faberi (SETFA) [5]): 5 (5=80-100%)
- AVEFA POST percentage damage (five point scale) (Avena fatua (AVEFA) [6]): 5 (5=80-100%)
- ECHCG POST percentage damage (five point scale) [7]: 5 (5=80-100%)
- LOLPE POST percentage damage (five point scale) (Lolium perenne (LOLPE) [8]): 5 (5=80-100%)

Structure (SMILES): CC#Cc1cc(C)c(C2C(=O)CC3(CCN(C(=O)c4cccc(OC)n4)CC3)CC2=O)c(C)c1 [Compound A110]
- AVEFA PRE percentage damage (five point scale) (Avena fatua (AVEFA) [1]): 5 (5=80-100%)
- ECHCG PRE percentage damage (five point scale) [2]: 5 (5=80-100%)
- LOLPE PRE percentage damage (five point scale) (Lolium perenne (LOLPE) [3]): 5 (5=80-100%)
- SETFA PRE percentage damage (five point scale) (Setaria faberi (SETFA) [4]): 5 (5=80-100%)
- SETFA POST percentage damage (five point scale) (Setaria faberi (SETFA) [5]): 5 (5=80-100%)
- AVEFA POST percentage damage (five point scale) (Avena fatua (AVEFA) [6]): 5 (5=80-100%)
- ECHCG POST percentage damage (five point scale) [7]: 5 (5=80-100%)
- LOLPE POST percentage damage (five point scale) (Lolium perenne (LOLPE) [8]): 5 (5=80-100%)
